Assay results published in US8852240B2, “Methods and compositions for fostering and preserving bone growth” (Kieran Murphy, LLC, priority 2004, dated 2014).
“Also recorded” adds a separate entry of the source.

Tests used:
[1] = system: marrow cavity of rat femur; experiment: Calcein labeling of mid-shaft sections of rat femur after bone marrow ablation (BMX); type: in vivo; settings: for protection of bone formed in the marrow cavity (calcein fluorescent signal): BMX + PTH 21 days, then anti-resorptive agent for the next 63 days (days 22-84), FIG. 7A
Description: FIG. 1A is a section of the mid-shaft of a rat femur following, respectively, 21 and 84 days of treatment. The groups include: (a) control—no bone marrow ablation (“BMX”) or anabolic agent, (b) BMX—bone marrow ablation alone; and (c) BMX+PTH−bone marrow ablation plus treatment for either 21 or 84 days with PTH 1-34 NH2. In addition, the rats were injected with calcein, a fluorescent dye, on 9, 8, 2 and 1 day prior to sacrificing the animals. Calcein becomes incorporated into bone and serves as a measure of bone growth and mineralization;
FIG. 6A illustrates the degree of persistent bone growth achieved after 84 days with the administration of a biocompatible material, in this instance Cementek (Cementek LV, Non-stoichiometric hydroxyapatite prepared from the reaction between the acid and base calcium phosphates in the presence of an aqueous solution. Teknimid, 65500 VIV en Biggore, France) or Pepgen-15 (a high purity anorganic bovine graft material, radiopaque, peptide-enhanced to mimic autogeneous bone. Dentsply Friadent CeraMed Lakewood, Colo.). All samples were taken from femurs which had BMX performed on them. The groups included: BMX followed by 84 days anabolic agent or PBS (buffer) presented in the first row or BMX followed by insertion of a slurry of biocompatible matrix (Cementek or Pepgen-15) with our without concomitant PTH treatment for 84 days;
FIGS. 7A and 7B illustrate the effect attributable to administration of the anti-resorption agent, Alendronate, in preserving bony tissue formed according to the method of the invention. The following treatment modalities are included: (a) BMX+PTH 1-34 NH2 for 21 days+PBS (buffer) during days 22-84; (b) BMX+PTH 1-34 NH2 for 21 days+calcitonin during days 22-84; (c) BMX+PTH 1-34 NH2 for 21 days+Alendronate during days 22-84; and (d) BMX+PTH 1-34 NH2 during days 1-84.

[2] = system: femoral shaft marrow cavity; experiment: Micro-CT analysis of the femoral shaft marrow cavity after bone marrow ablation (BMX); type: in vivo, rat; settings: for protection of bone formed in the marrow cavity (Micro-CT): BMX + PTH 21 days, then anti-resorptive drug for an additional 63 days, FIG. 7B
Text: FIG. 1B depicts the results from the same groups of animals using the imaging technique known as Micro-CT. This technique provides a high resolution analysis of the femoral shaft marrow cavity from the Control, BMX, and the BMX+PTH 1-34 NH2 of rats treated with PBS (buffer) or PTH for 21 or 84 days, respectively;
FIG. 6B depicts the results obtained from the same groups of animals reported in FIG. 6A using the Micro-CT imaging technique. This imaging technique provides a high resolution analysis of the femoral shaft marrow cavity from the BMX+PBS or PBX+PTH treatments, compared with femurs that had biocompatible materials (Cementek or Pepgen-15) injected into the bone marrow cavity following the step (e.g., ablation) resulting in the inducement of increased osteoblast activity; and
FIG. 7B depicts the results from the same groups of animals reported in FIG. 7A using the Micro-CT imaging technique, which provides a high resolution analysis of the femoral shaft marrow cavity.

NCCCC(O)(P(=O)(O)O)P(=O)(O)O [alendronate]
protection of bone formed in the marrow cavity (calcein fluorescent signal) [1]: protect the bone
protection of bone formed in the marrow cavity (calcein fluorescent signal) ([1]; listed as Alendronate): greater protective effect
protection of bone formed in the marrow cavity (Micro-CT) [2]: to a greater extent

PTH 1-34 NH2
bone formation in femur mid-shaft (calcein) ([1]; BMX + PTH for 21 days, day 21, FIG. 1A): leads to additional bone formation
bone / fluorescent label remaining in ablated marrow cavity (calcein) ([1]; BMX + PTH for 84 days, day 84, FIG. 1A / 7A): resorption of a substantial portion of the bone that was present at day 21; also recorded: contains a minimum amount of fluorescent label; also recorded: no longer contains fluorescent labels
bone formation in femurs receiving a biocompatible matrix material (calcein) ([1]; BMX + biocompatible matrix + PTH 84 days versus buffer (PBS), FIG. 6A): markedly greater than for buffer (PBS) alone
bone in femoral shaft marrow cavity (Micro-CT) ([2]; BMX + PTH 1-34 NH2 + biocompatible material versus biocompatible material alone, 84 days, FIG. 6B): better results than the use of biocompatible material alone
newly formed bone in the marrow cavity (Micro-CT) ([2]; BMX + PTH for 21 days, day 21, FIG. 1B): further augmented
bone in marrow cavity of femur mid-shaft/diaphysis (Micro-CT) ([2]; BMX + PTH for 84 days, day 84, FIG. 1B / 7B): no longer contains substantial amounts of bone; also recorded: no longer contains radio-dense bone

calcitonin
protection of bone formed in the marrow cavity (calcein fluorescent signal) [1]: protected; also recorded: protect the bone
protection of bone formed in the marrow cavity (Micro-CT) [2]: protects the bone
